Experimental data as given in US11110075B2, “Use of daphnetin in improving function of aortic endothelial cell” (XI'AN JIAOTONG UNIVERSITY, priority 2019, dated 2021).

What was measured:
[1] = test system: mitochondrial membrane fusion related protein Mfn2; experiment: Western blot protein detection of Mfn2 in palmitic acid treated HAECs; format: cell-based, human; conditions: 500 μM palmitic acid 24 h (PA group) vs control group, FIG. 3A, 3B
Protocol: (§1) Human aortic endothelial cells (HAECs) were purchased from Shanghai Bioleaf Biotech Co., Ltd. Palmitic acid (PA) was purchased from SIGMA Company. A palmitic acid solution having a concentration of 500 μM was prepared by dissolving palmitic acid in water. A cell culture incubator was adopted to culture the cells in a temperature-constant, humidified, sterile condition. The cells were cultured in wells of culture plates at an atmosphere of 95% air and 5% CO2 at 37° C. in the incubator. The experiments were performed on different experimental groups of cells. The HAECs that were previously cultured in a 6-well cell culture plate were divided into 3 different experimental groups, the control (Ctrl) group, the PA group, and the DAP+PA group. The cells of the DAP+PA group were applied with daphnetin in a concentration of 100 μM followed with a 24-hour incubation. Then, the cells of both the PA group and the DAP+PA group were applied with 500 μM palmitic acid, all followed with another 24-hour incubation. The protein detection was respectively carried out on each group of cells as follows. The medium for cell culture in the wells was removed. 150 μL of IP lysis buffer was added to each well of the culture plate. […] The supernatants were collected, and the proteins therein were quantified by bicinchoninic acid (BCA) assay, and normalized. […] Target proteins were detected by chemiluminescence.

[2] = test system: mitochondrial membrane fusion related protein Mfn1; experiment: Western blot protein detection of Mfn1 in palmitic acid treated HAECs; format: cell-based, human; conditions: FIG. 3A, 3B
Protocol: as §1

[3] = test system: interleukin-6 (IL-6) mRNA; experiment: IL-6 mRNA level detection by RT-PCR in palmitic acid treated HAECs; format: cell-based, human; conditions: FIG. 2
Protocol: (§2) Human aortic endothelial cells (HAECs) were purchased from Shanghai Bioleaf Biotech Co., Ltd. Palmitic acid (PA) was purchased from SIGMA Company. A palmitic acid solution having a concentration of 500 μM was prepared by dissolving palmitic acid in water. A cell culture incubator was adopted to culture the cells in a temperature-constant, humidified, sterile condition. The cells were cultured in wells of culture plates at an atmosphere of 95% air and 5% CO2 at 37° C. in the incubator. The experiments were performed on different experimental groups of cells.
The HAECs that were previously cultured in a 12-well cell culture plate were divided into 4 different experimental groups and respectively applied with daphnetin in the respective concentrations, 0 μM, 0 μM, 50 μM, 100 μM, and all followed with an 24-hour incubation. Then, the last 3 groups of cells were respectively applied with 500 μM palmitic acid, the first was not, and all followed with another 24-hour incubation. The detecting of mRNA levels corresponding to interleukin-6 (IL-6) was respectively carried out on each group of cells by using reverse transcription RNA and real-time quantitative polymerase chain reaction (PCR), and the specific method is as follows:
The medium for cell culture in the wells was removed. 500 μL of TRIzol™ reagent was added to each well, and the culture plate was then shaken at room temperature for 5 minutes. Then the cells in the wells were collected and transferred to a 1.5 mL eppendorf (EP) tube. 200 μl (taking […] of total volume of the substance in the EP tube) of chloroform was then added to the EP tube for extraction of […]. The samples were then vigorously stirred for 15 seconds, rested for 15 minutes at room temperature, and then centrifuged at a relative centrifugal force of 12,000 g for 10 minutes at 4° C. […] The concentration of the solution was measured by an ultraviolet spectrophotometer. […]

[4] = test system: human aortic endothelial cells (HAECs); experiment: MTT assay, viability of HAECs inhibited by palmitic acid; format: cell-based; conditions: HAECs pretreated with 10 μM daphnetin 24 h, then 500 μM palmitic acid 24 h; vs palmitic acid treated cells without daphnetin; FIG. 1
Protocol: as §2
The HAECs that were previously cultured in a 12-well cell culture plates were divided into 6 different experimental groups and respectively applied with daphnetin in different concentrations, 0 μM, 1 μM, 10 μM, 50 μM, 100 μM, and 200 μM, all followed with an 24-hour incubation. Then, each of the 6 groups of cells was further divided into two subgroups; one was applied with 500 μM palmitic acid, the other was not, and all followed with another 24-hour incubation.
An MTT assay was performed to all groups of cells. […] The absorbance was measured at a wavelength of 490 nm in a spectrophotometer. The absorbance of this colored solution can be quantified by measuring at a certain wavelength (usually between 500 and 600 nm) by a spectrophotometer.

SMILES	expression of Mfn2 [1]	expression of Mfn1 ([2]; 500 μM palmitic acid 24 h (PA group) vs control group)	increase of mRNA level corresponding to IL-6 ([3]; HAECs, 500 μM palmitic acid 24 h without daphnetin, vs control group)	relative protein expression level of Mfn1 ([2]; 100 μM daphnetin 24 h then 500 μM palmitic acid 24 h (DAP+PA group) vs PA group)	relative cell viability [4]	concentration dependence of inhibition of IL-6 mRNA level ([3]; HAECs pretreated with 50 μM or 100 μM daphnetin, then 500 μM palmitic acid)	mRNA level corresponding to IL-6 ([3]; HAECs pretreated with 100 μM daphnetin 24 h, then 500 μM palmitic acid 24 h, vs palmitic acid alone)
CCCCCCCCCCCCCCCC(=O)O [palmitic acid]	reducing the expression	reducing the expression	about 20 times				
O=c1ccc2ccc(O)c(O)c2o1 [daphnetin, 7,8-dihydroxycoumarin]				significantly increasing	higher viabilities	inhibition effect increases with the concentration	significantly decreased
